Measurements as given in patent US10189836B2, “Therapeutic compounds, compositions and methods of use thereof” (Genentech, Inc., priority 2015, dated 2019).
Like-named read-outs stand apart in the source and are kept apart here.

Experiments:
[1] = target: isolated recombinant JAK2 kinase domain (Homo sapiens (Human), UniProt O60674); experiment: JAK2 enzyme assay (Caliper LabChip, Ki); format: biochemical
[2] = target: isolated recombinant JAK1 kinase domain (Homo sapiens (Human), UniProt P23458); experiment: JAK1 enzyme assay (Caliper LabChip, Ki); format: biochemical
[3] = isolated recombinant JAK2 kinase domain, 0.2 nM enzyme, ATP 25 μM
[4] = isolated recombinant JAK1 kinase domain, 1.5 nM enzyme, ATP 25 μM

Sequence of isolated recombinant JAK2 kinase domain (O60674 849-1124): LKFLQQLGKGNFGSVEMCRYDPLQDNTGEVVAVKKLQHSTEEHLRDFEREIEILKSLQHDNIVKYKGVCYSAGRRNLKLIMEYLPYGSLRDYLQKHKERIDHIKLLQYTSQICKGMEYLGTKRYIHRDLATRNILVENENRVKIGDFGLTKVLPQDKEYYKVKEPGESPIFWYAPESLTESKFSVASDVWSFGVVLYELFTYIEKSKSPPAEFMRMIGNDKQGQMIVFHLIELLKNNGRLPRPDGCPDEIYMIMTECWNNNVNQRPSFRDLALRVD
Sequence of isolated recombinant JAK1 kinase domain (P23458 875-1153): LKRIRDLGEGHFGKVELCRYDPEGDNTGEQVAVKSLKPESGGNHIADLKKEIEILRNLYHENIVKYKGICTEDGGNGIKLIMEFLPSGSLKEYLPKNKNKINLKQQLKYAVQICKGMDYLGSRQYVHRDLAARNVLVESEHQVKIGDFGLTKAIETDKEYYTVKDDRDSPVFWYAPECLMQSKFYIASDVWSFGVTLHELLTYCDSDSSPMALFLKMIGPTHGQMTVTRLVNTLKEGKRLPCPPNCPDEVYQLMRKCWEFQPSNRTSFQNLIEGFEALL

| SMILES | Ki [1, 3] [nM] | Ki [2, 4] [nM] | Ki [1] [nM] | Ki [2] [nM] |
| --- | --- | --- | --- | --- |
| CSc1cccc(S(=O)(=O)N2C3CCC2CN(c2cccn4nc(Nc5cnn(CC(=O)N6CCN(C)CC6)c5)nc24)C3)c1 [Example 169, 1-(4-methylpiperazin-1-yl)-2-[4-[[8-[8-(3-methylsulfanylphenyl)sulfonyl-3,8-diazabicyclo[3.2.1]octan-3-yl]-[1,2,4]triazolo[1,5-a]pyridin-2-yl]amino]pyrazol-1-yl]ethanone] | 0.6 | 0.6 | – | – |
| CN1CCN(C(=O)Cn2cc(Nc3nc4c(N5CC6CCC(C5)N6S(=O)(=O)c5cccc(F)c5)cccn4n3)cn2)CC1 [Example 156, 2-[4-[[8-[8-(3-fluorophenyl)sulfonyl-3,8-diazabicyclo[3.2.1]octan-3-yl]-[1,2,4]triazolo[1,5-a]pyridin-2-yl]amino]pyrazol-1-yl]-1-(4-methylpiperazin-1-yl)ethanone] | 3.7 | 1.3 | – | – |
| CN1CCN(C(=O)Cn2cc(Nc3nc4c(N5CC6CCC(C5)N6C(=O)[C@H]5C[C@H](C(F)(F)F)C5)cccn4n3)cn2)CC1 [Example 6, formic acid; 1-(4-methylpiperazin-1-yl)-2-[4-[[8-[8-[3-(trifluoromethyl)cyclobutanecarbonyl]-3,8-diazabicyclo[3.2.1]octan-3-yl]-[1,2,4]triazolo[1,5-a]pyridin-2-yl]amino]pyrazol-1-yl]ethanone] | 0.6 | 0.7 | – | – |
| CCN1CCN(C(=O)Cn2cc(Nc3nc4c(N5CC6CCC(C5)N6C(=O)N5CC(C(F)(F)F)C5)cccn4n3)cn2)CC1 [Example 59, 1-(4-ethylpiperazin-1-yl)-2-[4-[[8-[8-[3-(trifluoromethyl)azetidine-1-carbonyl]-3,8-diazabicyclo[3.2.1]octan-3-yl]-[1,2,4]triazolo[1,5-a]pyridin-2-yl]amino]pyrazol-1-yl]ethanone] | 0.5 | 0.8 | – | – |
| CN1CCN(C(=O)Cn2cc(Nc3nc4c(N5CC6CCC(C5)N6S(=O)(=O)c5ccccc5F)cccn4n3)cn2)CC1 [Example 150, 2-[4-[[8-[8-(2-fluorophenyl)sulfonyl-3,8-diazabicyclo[3.2.1]octan-3-yl]-[1,2,4]triazolo[1,5-a]pyridin-2-yl]amino]pyrazol-1-yl]-1-(4-methylpiperazin-1-yl)ethanone] | 1.5 | 0.7 | – | – |
| CC(CC(F)(F)F)C(=O)N1C2CCC1CN(c1cccn3nc(Nc4cnn(CC(=O)N5CCN(C)CC5)c4)nc13)C2 (centres unmarked) [Example 47, 4,4,4-trifluoro-2-methyl-1-[3-[2-[[1-[2-(4-methylpiperazin-1-yl)-2-oxo-ethyl]pyrazol-4-yl]amino]-[1,2,4]triazolo[1,5-a]pyridin-8-yl]-3,8-diazabicyclo[3.2.1]octan-8-yl]butan-1-one] | 2 | 1.8 | – | – |
| CN1CCN(C(=O)Cn2cc(Nc3nc4c(N5CC6CCCC(C5)N6C(=O)[C@H]5C[C@@H](C(F)(F)F)C5)cccn4n3)cn2)CC1 [Example 65, 1-(4-methylpiperazin-1-yl)-2-[4-[[8-[9-[3-(trifluoromethyl)cyclobutanecarbonyl]-3,9-diazabicyclo[3.3.1]nonan-3-yl]-[1,2,4]triazolo[1,5-a]pyridin-2-yl]amino]pyrazol-1-yl]ethanone] | 0.8 | 0.6 | – | – |
| CN1CCN(C(=O)Cn2cc(Nc3nc4c(N5CC6CCC(C5)N6C(=O)C5CC(C#N)C5)cccn4n3)cn2)CC1 (centres unmarked) [Example 92, 3-[3-[2-[[1-[2-(4-methylpiperazin-1-yl)-2-oxo-ethyl]pyrazol-4-yl]amino]-[1,2,4]triazolo[1,5-a]pyridin-8-yl]-3,8-diazabicyclo[3.2.1]octane-8-carbonyl]cyclo-butanecarbonitrile] | 1.7 | 0.9 | – | – |
| CN1CCN(C(=O)Cn2cc(Nc3nc4c(N5CC6CCC(C5)N6S(=O)(=O)CCCC(F)(F)F)cccn4n3)cn2)CC1 [Example 174, 1-(4-methylpiperazin-1-yl)-2-[4-[[8-[8-(4,4,4-trifluorobutylsulfonyl)-3,8-diazabicyclo[3.2.1]octan-3-yl]-[1,2,4]triazolo[1,5-a]pyridin-2-yl]amino]pyrazol-1-yl]ethanone] | 1.1 | 0.7 | – | – |
| CN1CCN(C(=O)Cn2cc(Nc3nc4c(N5CC6CCC(C5)C6C(=O)N5CC(C(F)(F)F)C5)cccn4n3)cn2)CC1 (centres unmarked) [Example 43, 1-(4-methylpiperazin-1-yl)-2-(4-[[8-(8-[[3-(trifluoromethyl)azetidin-1-yl]carbonyl]-3-azabicyclo[3.2.1]octan-3-yl)-[1,2,4]triazolo[1,5-a]pyridin-2-yl]amino]-1H-pyrazol-1-yl)ethan-1-one] | 1.9 | 1.1 | – | – |
| CN(CC1(C#N)CC1)C1CCN(C(=O)Cn2cc(Nc3nc4c(N5CC6CCC(C5)N6C(=O)C5CC(C(F)(F)F)C5)cccn4n3)cn2)CC1 (centres unmarked) [Example 193, 1-[[methyl-[1-[2-[4-[[8-[8-[3-(trifluoromethyl)cyclobutanecarbonyl]-3,8-diazabicyclo[3.2.1]octan-3-yl]-[1,2,4]triazolo[1,5-a]pyridin-2-yl]amino]pyrazol-1-yl]acetyl]-4-piperidyl]amino]methyl]-cyclopropanecarbonitrile] | 0.7 | 0.6 | – | – |
| CN1CCN(C(=O)Cn2cc(Nc3nc4c(N5CC6CCC(C5)N6S(=O)(=O)CCCC#N)cccn4n3)cn2)CC1 [Example 176, 4-[[3-[2-[[1-[2-(4-methylpiperazin-1-yl)-2-oxo-ethyl]pyrazol-4-yl]amino]-[1,2,4]triazolo[1,5-a]pyridin-8-yl]-3,8-diazabicyclo[3.2.1]octan-8-yl]sulfonyl]butanenitrile] | 3.4 | 0.7 | – | – |
| CN1CCN(C(=O)Cn2cc(Nc3nc4c(N5C[C@H]6CC[C@@H](C5)[C@H]6N(C)C(=O)CC(F)(F)F)cccn4n3)cn2)CC1 [Example 164, 3,3,3-trifluoro-N-methyl-N-[rac-(1S,5R)-3-[2-[[1-[2-(4-methylpiperazin-1-yl)-2-oxo-ethyl]pyrazol-4-yl]amino]-[1,2,4]triazolo[1,5-a]pyridin-8-yl]-3-azabicyclo[3.2.1]octan-8-yl]propanamide] | 1 | 0.7 | – | – |
| CN1CCN(C(=O)Cn2cc(Nc3nc4c(N5CC6CCC(C5)N6C(=O)C5CCC(F)(F)C5)cccn4n3)cn2)CC1 (centres unmarked) [Example 58, 2-[4-[[8-[8-(3,3-difluorocyclopentanecarbonyl)-3,8-diazabicyclo[3.2.1]octan-3-yl]-[1,2,4]triazolo[1,5-a]pyridin-2-yl]amino]pyrazol-1-yl]-1-(4-methylpiperazin-1-yl)ethanone] | 2.5 | 1.6 | – | – |
| CN1CCN(C(=O)Cn2cc(Nc3nc4c(C5=CC6CCC(C5)N6C(=O)OCC(F)(F)F)cccn4n3)cn2)CC1 (centres unmarked) [Example 7, 2,2,2-trifluoroethyl 3-[2-[[1-[2-(4-methylpiperazin-1-yl)-2-oxo-ethyl]pyrazol-4-yl]amino]-[1,2,4]triazolo[1,5-a]pyridin-8-yl]-8-azabicyclo[3.2.1]oct-3-ene-8-carboxylate] | – | – | 0.7 | 0.7 |
| CN(C1CCN(C(=O)Cn2cc(Nc3nc4c(N5CC6CCC(C5)N6C(=O)CCC(F)(F)F)cccn4n3)cn2)CC1)C1COC1 [Example 11, 4,4,4-trifluoro-1-[3-[2-[[1-[2-[4-[methyl(oxetan-3-yl)amino]-1-piperidyl]-2-oxo-ethyl]pyrazol-4-yl]amino]-[1,2,4]triazolo[1,5-a]pyridin-8-yl]-3,8-diazabicyclo[3.2.1]octan-8-yl]butan-1-one] | 1.4 | 0.7 | – | – |
| CC(C(=O)N1CCN(C)CC1)n1cc(Nc2nc3c(N4CC5CCC(C4)N5C(=O)C4CC(C(F)(F)F)C4)cccn3n2)cn1 (centres unmarked) [Example 123, 1-(4-methylpiperazin-1-yl)-2-[4-[[8-[8-(3-(trifluoromethyl)-cyclobutanecarbonyl]-3,8-diazabicyclo[3.2.1]octan-3-yl]-[1,2,4]triazolo[1,5-a]pyridin-2-yl]amino]pyrazol-1-yl]propan-1-one] | 0.5 | 0.5 | – | – |
| Cc1cc(S(=O)(=O)N2C3CCC2CN(c2cccn4nc(Nc5cnn(CC(=O)N6CCN(C)CC6)c5)nc24)C3)sn1 [Example 139, 2-[4-[[8-[8-(3-yl)sulfonyl-3,8-diazabicyclo[3.2.1]octan-3-yl]-[1,2,4]triazolo[1,5-a]pyridin-2-yl]amino]pyrazol-1-yl]-1-(4-methylpiperazin-1-yl)ethanone] | 0.6 | 0.8 | – | – |
| CN1CCN(C(=O)Cn2cc(Nc3nc4c(N5CC6CCC(C5)N6C(=O)C5CSC5)cccn4n3)cn2)CC1 [Example 3, 1-(4-methylpiperazin-1-yl)-2-[4-[[8-[8-(thietane-3-carbonyl)-3,8-diazabicyclo[3.2.1]octan-3-yl]-[1,2,4]triazolo[1,5-a]pyridin-2-yl]amino]pyrazol-1-yl]ethanone] | 0.6 | 0.5 | – | – |
| CSc1ccccc1S(=O)(=O)N1C2CCC1CN(c1cccn3nc(Nc4cnn(CC(=O)N5CCN(C)CC5)c4)nc13)C2 [Example 132, 1-(4-methylpiperazin-1-yl)-2-[4-[[8-[8-(2-methylsulfanylphenyl)sulfonyl-3,8-diazabicyclo[3.2.1]octan-3-yl]-[1,2,4]triazolo[1,5-a]pyridin-2-yl]amino]pyrazol-1-yl]ethanone] | 0.4 | 0.4 | – | – |
| CN1CCN(C(=O)Cn2cc(Nc3nc4c(N5CC6CCC(C5)N6C(=O)c5cccc(Cl)c5)cccn4n3)cn2)CC1 [Example 90, 2-[4-[[8-[8-(3-chlorobenzoyl)-3,8-diazabicyclo[3.2.1]octan-3-yl]-[1,2,4]triazolo[1,5-a]pyridin-2-yl]amino]pyrazol-1-yl]-1-(4-methylpiperazin-1-yl)ethanone] | 2.3 | 0.8 | – | – |
| CN1CCN(C(=O)Cn2cc(Nc3nc4c(N5CC6CCC(C5)N6S(=O)(=O)c5cccc(C#N)c5)cccn4n3)cn2)CC1 [Example 143, 3-[[3-[2-[[1-[2-(4-methylpiperazin-1-yl)-2-oxo-ethyl]pyraol-4-yl]amino]-[1,2,4]triazolo[1,5-a]pyridin-8-yl]-3,8-diazabicyclo[3.2.1]octan-8-yl]sulfonyl]benzonitrile] | 1.1 | 0.5 | – | – |
